For this assay, the target named is T1, HLA-B*13:01 (with beta-2-microglobulin) (Homo sapiens, UniProt A0A583ZBB4).
T1 construct: for SPR incubated with beta-2-microglobulin (Chemicon) and amine-coupled; no peptide ligand mentioned for SPR; with Beta-2-microglobulin
The experiment in a line: surface plasmon resonance (Biacore T200), protein immobilised by amine coupling. Format: binding. A general note: In SPR one partner is held on a chip, and binding of the other changes the refractive index at the surface.

Turning to `Nc1ccc(S(=O)(=O)c2ccc(N)cc2)cc1` [DDS], binding was put at a Kd of 68.5 µM.

What is called Kd is the equilibrium constant for the complex coming apart. Read a high Kd as lower affinity.

Source of the values: PMC9375929, “Functional and structural characteristics of HLA-B*13:01-mediated specific T cells reaction in dapsone-induced drug hypersensitivity” (Journal of Biomedical Science, 2022).
